# “Also recorded” adds a separate entry of the source. Ends that are not written are not given here. Peptide text beside a SMILES is read from it. * marks the point of attachment. Cbz = O=C(OCc1ccccc1)*
# Assays:
# ERAD substrate TCR-α = experiment: TCR-α level in co-transfected cells; type: cell-based; details: co-transfection with TCR-α
# Description: (§1) Transfections of HT1080, NIH 3T3 and HEK 293T cells were carried out ˜24 hr after plating using Polyfect (Qiagen, Valencia, Calif.) and cells harvested after ˜48 hr. J558 cells were transfected by electroporation using Bio-rad GENE pulser II at settings of 250 v, 950uF. Vector without insert was used to equalize total plasmid. In most experiments 0.15 μg of pEGFP-C1 served as an internal control. For experiments not involving immunoprecipitation, 6×10^5 cells were plated in 6 well plates and cell lysis was with Mammalian Protein Extraction Reagent (Pierce). For immunoprecipitation, 2.4×10^6 cells were seeded in 100 mm dishes and cells were lysed in RIPA buffer (1×PBS, 1% Nonidet P40. 0.5% sodium deoxycholate, 0.1% SDS). Lysis buffers were supplemented with Protease Inhibitor Cocktail (Sigma) and 10 mM iodoacetamide. Supernatants were analyzed after a 10,000×g centrifugation using standard techniques for immunoprecipitation, SDS-PAGE, immunoblotting and ECL. Treatment of cells with MG132 (Sigma) was at 50 μM for eight hr. Cycloheximnide was used at 50 μg/ml. All cells were collected at the end of the six hr chase.
# FIG. 9 depicts the stabilization of endogenous TCRα by the G2BD. TCR-α is a subunit of the T cell antigent receptor and an ERAD substrate. TCR-α was stabilized by the region implicated in Ube2G2 binding.
# (§2) To test this, GFP fusions of either a minimal E2 binding domain (GFP-574-611) or a more extended region that includes the C-terminus of gp78 (GFP-574-643) were evaluated (FIG. 21A). […] To assess this further, the C-terminal region of gp78 was fused to the eight amino acid Flag tag. […] Mdm2 is a RING finger E3 for both itself and p53 that is neither an ERAD substrate nor known to utilize Ube2G2 as an E2. […] To establish with certainty that the effect observed with expression of the Ube2G2 binding site is a consequence of binding endogenous E2, and not due to other unanticipated effects, cells were co-transfected with increasing amounts of Ube2G2 (FIG. 21C, lanes 3 and 4). […] These findings clearly establish that the isolated E2 binding site has the potential to markedly alter ERAD of CD3-δ. To ensure the effect observed was not peculiar to one substrate, TCR-α was evaluated (FIG. 21D).
# ERAD substrate CD3-δ = experiment: CD3-δ level in co-transfected cells by immunoblotting; type: cell-based; details: for effect on CD3-δ level (stabilization): co-transfection with CD3-δ, immunoblot
# Description: as §1
# FIG. 7 depicts the stabilization of CD3-δ protein in cells transfected with the G2BD, but not with the G2BD with amino acids 579-584 (of SEQ ID NO:2) mutated. HEK 293T cells were transfected with the ERAD substrate CD3-δ along with the indicated GFP fusions of gp78. The left and right sides are two separate experiments.
# as §2
# Mdm2 = Mdm2 level in co-transfected cells; type: cell-based; details: cells transfected with CD3-δ and Mdm2
# Description: as §1
# To test this, GFP fusions of either a minimal E2 binding domain (GFP-574-611) or a more extended region that includes the C-terminus of gp78 (GFP-574-643) were evaluated (FIG. 21A). […] To ensure the effect observed was not peculiar to one substrate, TCR-α was evaluated (FIG. 21D).
# gp78 = gp78 level in transfected cells by immunoblotting; type: cell-based
# Description: as §1, with “All cells were collected at the end of the six hr chase.” left out
# gp78 is degraded in a proteasome-dependent manner, and deletion of the entire cytoplasmic domain results in its stabilization. […] To determine the significance of the RING finger, Cue domain and Ube2G2 binding site on gp78 stability, mutations of each were evaluated within full-length gp78. […]
# Myc-Ube2G2 = target: T1, Myc-Ube2G2 (Mus musculus, UniProt P60605); experiment: Co-immunoprecipitation with co-expressed Myc-Ube2G2 in cells; type: cell-based; details: anti-Myc IP, anti-GFP IB
# T1 construct: expressed in transfected cells; host or cells: HEK 293T
# T1 sequence (P60605 1-165): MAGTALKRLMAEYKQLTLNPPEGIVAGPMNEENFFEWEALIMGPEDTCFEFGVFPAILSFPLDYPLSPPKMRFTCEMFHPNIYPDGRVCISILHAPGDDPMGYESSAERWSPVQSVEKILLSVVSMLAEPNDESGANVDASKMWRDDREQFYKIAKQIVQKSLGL
# Description: as §1
# FIG. 5 depicts the results of immunoprecipitation of Ube2G2 (MmUbc7) from HEK 293T cells co-transfected with a plasmid encoding myc-tagged MmUbc7/Ube2G2 together with s plasmid encoding various forms of gp78. […]
# [1] = target: T2, lysine 48-linked (K48) tetra-ubiquitin (Homo sapiens, UniProt P0CG47); experiment: Tetra-ubiquitin binding to GST fusions; details: anti-ubiquitin immunoblot
# T2 construct: 1 μg K48 tetra-ubiquitin produced as described (Piotrowski et al., 1997); made in house
# Description: GST fusions were purified from E. Coli. Binding was carried out using equi-molar amount of fusion proteins measured by Commassie blue staining. Generally, 20 picomoles/sample were used. In vitro translated E2 was generated by coupled transcription and translation using 35S methionine in either wheat germ or rabbit reticulocyte lysate. Binding assays using in vitro translated E2 was carried out by incubating GST protein pre-bound to Glutathione-sepharose 4B with […] of ^35S-methionine labeled E2 in binding buffer (25 mM Tris-HCl, pH 7.4; 50 mM NaCl, 5 mM DTT; and 0.5% NP-40) overnight at 4° C. Beads were washed with binding buffer and resolved by SDS-PAGE under reducing conditions. Analysis was by Storm PhosphoImager (Applied Biosystems, Foster City, Calif.). Direct binding assays used wild type His6-MmUbc7 (His6-Ube2G2) and Glutathione-sepharose bound GST fusions. Beadbound GST protein was incubated with 100 ng purified His6-MmUbc7 in binding buffer and washed and eluted as above. After transfer to Hybond-P (Amersham Biosciences) binding was assessed with anti-His6 followed by Enhanced Chemiluminescence ECL; Pierce). Ubiquitin binding studies were performed with binding and washing as above using 1 μg K48 tetra-ubiquitin produced as described (Piotrowski et al., 1997). Detection was by anti-ubiquitin immunoblotting.
# Ube2G2/MmUbc7 = target: T3, Ube2G2/MmUbc7 (Mus musculus, UniProt P60605); experiment: GST pull-down binding of in vitro translated 35S-Met Ube2G2/MmUbc7; design: species or system human; details: GST fusion pull-down; 35S-Met labeled E2
# T3 construct: made in house; host or cells: coupled in vitro transcription/translation in rabbit reticulocyte lysate or wheat germ
# T3 sequence (P60605 1-165): T1 sequence (P60605 1-165)
# Description: GST fusions were purified from E. Coli. Binding was carried out using equi-molar amount of fusion proteins measured by Commassie blue staining. Generally, 20 picomoles/sample were used. In vitro translated E2 was generated by coupled transcription and translation using 35S methionine in either wheat germ or rabbit reticulocyte lysate. […] Beads were washed with binding buffer and resolved by SDS-PAGE under reducing conditions. Analysis was by Storm PhosphoImager (Applied Biosystems, Foster City, Calif.). Direct binding assays used wild type His6-MmUbc7 (His6-Ube2G2) and Glutathione-sepharose bound GST fusions. Beadbound GST protein was incubated with 100 ng purified His6-MmUbc7 in binding buffer and washed and eluted as above. After transfer to Hybond-P (Amersham Biosciences) binding was assessed with anti-His6 followed by Enhanced Chemiluminescence ECL; Pierce).
# The E2 enzymes were in vitro translated using wheat germ.
# GST fusion proteins encoding the regions indicated in FIGS. 3A-3C were evaluated for the ability to bind to Ube2G2/MmUbc7 that had been in vitro transcribed and translated in rabbit reticulocyte lysate. gp78C represents the entire C-terminal cytoplasmic domain of gp78 (amino acid residues 309-643 of SEQ ID NO:2).
molecule,measurement,setting,value
"CC(C)C[C@@H](C=O)NC(=O)[C@H](CC(C)C)NC(=O)[C@H](CC(C)C)NC(=O)OCc1ccccc1 [MG132, reference compound] (Cbz-Leu-Leu-Leu-aldehyde)",effect on TCR-α level (stabilization),ERAD substrate TCR-α,prevented degradation of TCR-α
same,reversal of G2BD-induced CD3-δ stabilization by co-transfected Ube2G2,"ERAD substrate CD3-δ; cells expressing Flag-tagged gp78 574-643, 2 or 4 μg Ube2G2 plasmid",blocked the effect of transfected Ube2G2
same,effect on Mdm2 level (stabilization),Mdm2,led to Mdm2 stabilization
same,effect of proteasome inhibitor on gp78 level,gp78,stabilized wild type gp78
GFP-574-611E2-m2: GFP fusion of gp78 574-611 with the E2 binding site mutation of residues 579 to 584,effect on TCR-α level (stabilization),ERAD substrate TCR-α,did not
same,effect on CD3-δ level (stabilization),ERAD substrate CD3-δ,totally prevented this stabilization
same,effect on CD3-δ level (stabilization),ERAD substrate CD3-δ; listed as G2BD with amino acids 579-584 (of SEQ ID NO:2) mutated,loss of this effect
579-600: GFP fusion of amino acids 579-600 of SEQ ID NO:2 (QRMLVQRKDELLQQARKRFLNK; listed as Homo sapiens),binding of GFP fusion to co-expressed Myc-Ube2G2 in cells,Myc-Ube2G2,sufficient to bind Ube2G2 in cells
"UBA-Cbl-b: GST fusion of the UBA of the RING finger E3 Cbl-b (NVDAKIAKLMGEGYAFEEVKRALEIAQNNVEVARSILREF; also: GST fusion partner, not in chain) [reference compound]",binding of K48 tetra-ubiquitin,[1],binds
574-608: GST fusion of amino acids 574-608 of gp78 (SEQ ID NO:2) (SADERQRMLVQRKDELLQQARKRFLNKSSEDDAAS; listed as Homo sapiens),binding to in vitro translated Ube2G2/MmUbc7,Ube2G2/MmUbc7,sufficient for binding to Ube2G2; also recorded: bound in vitro translated Ube2G2 comparably to the complete gp78 C-terminal tail
